The NIST ThermoML archive (doi:10.1016/j.jct.2015.03.015)
± gives the expanded uncertainty stated by the source.

Details: Crystal, Transpiration method

| Compound | vapor or sublimation pressure (424 K) | vapor or sublimation pressure (434.1 K) | vapor or sublimation pressure (440 K) | vapor or sublimation pressure (446 K) | vapor or sublimation pressure (451.9 K) | vapor or sublimation pressure (457.7 K) | vapor or sublimation pressure (462.6 K) | vapor or sublimation pressure (467.4 K) | vapor or sublimation pressure (472.4 K) | vapor or sublimation pressure (426.4 K) | vapor or sublimation pressure (430.5 K) | vapor or sublimation pressure (436.2 K) | vapor or sublimation pressure (440.5 K) | vapor or sublimation pressure (447.6 K) | vapor or sublimation pressure (450.8 K) | vapor or sublimation pressure (456.5 K) | vapor or sublimation pressure (460.6 K) | vapor or sublimation pressure (464.8 K) | vapor or sublimation pressure (468.9 K) | vapor or sublimation pressure (472.3 K) |
| --- | --- | --- | --- | --- | --- | --- | --- | --- | --- | --- | --- | --- | --- | --- | --- | --- | --- | --- | --- | --- |
| O=c1cc[nH]c(=O)[nH]1 [2,4(1H,3H)-pyrimidinedione] | 0.00022 ± 2e-05 kPa | 0.00051 ± 4e-05 kPa | 0.00086 ± 7e-05 kPa | 0.00135 ± 0.0001 kPa | 0.00212 ± 0.00015 kPa | 0.00317 ± 0.0002 kPa | 0.0047 ± 0.0003 kPa | 0.00673 ± 0.00046 kPa | 0.00905 ± 0.0006 kPa | – | – | – | – | – | – | – | – | – | – | – |
| Cc1c[nH]c(=O)[nH]c1=O [thymine] | – | – | – | – | – | – | – | – | – | 0.00061 ± 5e-05 kPa | 0.00086 ± 7e-05 kPa | 0.00134 ± 0.0001 kPa | 0.00183 ± 0.00012 kPa | 0.00314 ± 0.0002 kPa | 0.00397 ± 0.00025 kPa | 0.00601 ± 0.00043 kPa | 0.00813 ± 0.00056 kPa | 0.01106 ± 0.00073 kPa | 0.01464 ± 0.00095 kPa | 0.01767 ± 0.0011 kPa |
